Assay results: US6649648B1, “Therapeutic methods and compositions involving isoflavones” (Novogen Research Pty Limited, priority 1996, dated 2003)

Legend:
rat aortic rings = experiment: Vascular reactivity, rat aortic rings with noradrenaline; format: cell-based; conditions: rat aortic ring, vasoconstrictor noradrenaline
Method: Vascular reactivity studies using rat aortic rings is generally regarded as directly predictive of biological effects of candidate compounds in the treatment of the above conditions (Karapapanis, S. et al (1994) Heptology, 20, 6, 1516-1521). The inhibitory effect on restrictor responses in the aortic ring is measured in the presence of the vasoconstrictor noradrenaline according to the procedure of Karapapanis (supra).

human LDL = experiment: Redox Test (LDL lipid oxidation in the presence of vitamin E); format: biochemical; conditions: for Redox Index: human LDL, 20% consumption of endogenous α-tocopherol, BHT 10 μm, lower value = higher activity
From the text: 2. Redox Test—This test measures the ability of a compound to prevent LDL lipid oxidation in the presence of vitamin E. The test is a physiological test, vitamin E (α-tocopherol) is present with LDL in the blood stream, and LDL oxidation is believed to be one of the major factors of the development of atherosclerosis. The lower values, the higher the redox activity. […] The test indirectly assesses the ability of a compound to synergise with α-tocopherol in human LDL undergoing mild and chemically controlled oxidation. Oxidation is measured by the accumulation of cholesterylester hydroperoxides at a time point corresponding to 20% consumption of endogenous α-tocopherol. Butylated hydroxytoluene (BHT 10 μm) is used as a positive control. The redox index is measured by the relative extent of oxidation of LDL in the presence of the sample divided by the relative extent of oxidation in the absence of the test compounds. […] Tests were carried out according to Bowry, V. W. et al (1995) J. Bio. Chem. 270 (11) 5756-5763.

breast cancer = experiment: Prevention of breast cancer in high risk women, transdermal patch; format: in vivo, human; conditions: same manner and amount, six month trial period
Method: This study investigated whether compounds 1 through 19 administered transdermally each day through a skin patch could be used to prevent breast cancer or metastatic cancers following cancer therapy. Patches were prepared that contained a lipophylic carrier cream which is readily absorbed through the skin. The cream comprised a glycerol cold cream which contained glycerin and peanut oil. A selected active compound from any one of compounds of the formulae 1 to 19 is mixed with the lipophylic cream such that each patch comprises 10 mg to 100 mg of active compound. The patch is applied to the skin each day and rapid absorption occurs. After two hours the patch is removed. Alternatively, the patch may be left on for a greater part of each day.

bowel cancer = experiment: Patients with advanced or terminal bowel cancer; format: in vivo, human; conditions: intravenous infusion 2 g daily, three weeks, advanced bowel cancer
Method: A patient suffering from advanced bowel cancer is treated daily for three weeks with an intravenous infusion of 2 g of the compound of the formula 14 dissolved in sterile saline. […] Progression of the tumour is also arrested over the treatment period.
A second patient suffering from the same condition is treated in the same manner as the above patient with the exception that the 2 g dose of the active compound is administered by way of bolus injection.
In a further series of experiments a group of patients suffering from terminal bowel cancer were treated by bolus daily injections (intravenous or intramuscular) of 2 g of a compound selected from one of the formulae 1 to 19. Over the test period there is shown to be a marked reduction in pain and discomfort. Tumour markers (carcino-embryonic antigen (CEA)) are reduced as evidenced by blood analysis and tumour spread decreased.

HL60 = experiment: Anti-cancer screening assay, inhibition of cell proliferation; format: cell-based, human
Method: (§1) The activity of compounds of the present invention in inhibiting the growth of hormone responsive cancer cells were tested using the well characterised human responsive cancer cell lines K562 and HL60. The anti-cancer screening assay measured inhibition of cell proliferation which results in terminal differential cell death.

LDL = LDL Antioxidation Test; format: biochemical; conditions: for Lag Times / % Increase Over Control: LDL 0.25 mg/ml, 10 μm active compound, 4 μm Cu++; for Lag Times: control 20 min; for antioxidant potency (in words): conclusion from the LDL antioxidation test; for % Increase Over Control: lag time
Method: 1. LDL Antioxidation Test—This test measures the ability of a compound to directly scavenge free radicals or to chelate transition metals. […] These tests were carried out according to the procedure of Esterbauer et al Free. Rad. Res. Coms. (1989) 6, 67-75. Briefly, LDL (0.25 mg/ml) is incubated with 10 μm active compound in the presence of 4 μm Cu^++, and LDL was assayed for oxidation by HPLC analysis.

K562 = experiment: Anti-cancer screening assay, inhibition of cell proliferation; format: cell-based, human; conditions: cell line printed K563 at the result
Method: as §1

LDL receptor = experiment: LDL Receptor Studies, LDL uptake into liver cells; format: cell-based
From the text: 4. LDL Receptor Studies—Treatment of atherosclerosis, myocardial infarction, stroke and hypertension. This will establish that compounds which up-regulate the LDL receptor, lead to decreased circulating LDL, and therefore reduces the prospect of atherosclerosis, myocardial infarction, stroke and hypertension. Using an assay according to Stephan Z. F. and Yurachek, E. C. (1993) J. Lipid. Res. 34, 325-330, it is shown that the compounds of the formulae 1 to 19 are effective in increasing LDL uptake into liver cells, this being directly predictive of decrease of circulating LDL in the human blood stream.

O=C1c2c(O)cc(O)cc2OCC1c1ccc(O)cc1 (stereo not shown) [dihydrogenestein, Dihydrogenistein]
inhibitory effect on vaso-constrictor responses to noradrenaline (rat aortic rings): potent inhibitory effects on responses to noradrenaline

Cc1cc(C(C)(C)C)c(O)c(C(C)(C)C)c1 [BHT, Butylated hydroxytoluene, reference compound]
Redox Index (human LDL): 6.3

CC(C(=O)c1c(O)cc(O)cc1O)c1ccc(O)cc1 (stereo not shown) [Compound 14, 6-hydroxy-O-demethylangolensin]
evidence of breast cancer or other metastatic cancer (breast cancer): same beneficial results
cancer markers (bowel cancer): reduction
pain and discomfort (bowel cancer): significantly reduced
progression of the tumour (bowel cancer): arrested

Tetrahydrodaidzein
inhibitory effect on vaso-constrictor responses to noradrenaline (rat aortic rings): potent inhibitory effects on responses to noradrenaline
inhibition of growth of cell line (HL60): strong inhibition
Lag Times (LDL): >140 min
antioxidant potency (in words) (LDL): extremely potent antixoidants
% Increase Over Control (LDL): >600%

C=C(C(=O)c1ccc(O)cc1O)c1ccc(O)cc1 [Compound 11, 2-dehydro-O-demethylangolensin]
evidence of breast cancer or other metastatic cancer (breast cancer): same beneficial results

O=C1c2ccc(O)cc2OCC1c1ccc(O)cc1 (stereo not shown) [Dihydrodaidzein, dihydrodaidzein]
inhibitory effect on vaso-constrictor responses to noradrenaline (rat aortic rings): potent inhibitory effects on responses to noradrenaline

Oc1ccc(C2=Cc3ccc(O)cc3OC2)cc1 [Dehydroequol]
Lag Times (LDL): >140 min
antioxidant potency (in words) (LDL): extremely potent antixoidants
% Increase Over Control (LDL): >600%
synergistic interaction with vitamin E to prevent oxidation (human LDL; Redox Test): interacts synergistically with vitamin E to prevent oxidation
Redox Index (human LDL): 4.5±1.2

Oc1ccc([C@H]2COc3cc(O)ccc3C2)cc1 [equol]
inhibitory effect on vaso-constrictor responses to noradrenaline (rat aortic rings): potent inhibitory effects on responses to noradrenaline
inhibition of growth of cell line (HL60): potent inhibitors of growth
inhibition of growth of cell line (K562): potent inhibitors of growth
increase of LDL uptake into liver cells (LDL receptor): particularly active
